Patent US12383499B2, “Scale up synthesis of silicasome nanocarriers” (The Regents of the University of California, priority 2018, dated 2025)
Where a name gives a salt, the structure may show the parent alone.

Key:
[1] = system: orthotopic KPC-derived PDAC tumor; test: Efficacy and survival in the orthotopic KPC-derived PDAC model; assay type: in vivo, B6/129SF1/J mice; conditions: 40 mg/kg twice per week, three IV administrations, n=3
orthotopic MC38 tumor = test: Efficacy and survival in the orthotopic MC38 tumor chunk colon cancer model; assay type: in vivo, C57BL/6 mice
KPC cells = test: MTS cytotoxicity assay, KPC cells; assay type: cell-based, murine; conditions: KPC pancreatic cancer cells
Protocol: (§1) The cytotoxicity of purified MSNPs was assessed in a standard MTS assay (CellTiter 96® AQueous One Solution Cell Proliferation Assay, Promega). KPC or MC38 cells were plated at a density of 5×10^3 cells per well in a 96-well plate and cultured for 24 hr. The medium was replaced with fresh medium containing the different NPs at the indicated concentrations. Non-treated cells were used as control. After a 48 hr treatment, the medium was replaced with 100 μL fresh medium containing MTS solution (5:1, v/v medium/CellTiter 96® Aqueous stock solution) for further culture at 37° C. for 1 hr. The absorbance of the culture wells at 490 nm was directly recorded by a microplate reader (M5e, Molecular Device, USA). Wells without cells but contained the same MTS solution were used as blank. The relative cell viability (%) is [(the absorption of treated well−blank)/(the absorption of control well−blank)]×100.

[2] = Toxicity study (bone marrow, GI tract, liver, body weight); assay type: in vivo, C57BL/6 mice; conditions: 24 h after 4 IV injections of 40 mg/kg irinotecan
Excerpt: Irinotecan exerts major systemic toxicological effects (e.g., neutropenia and diarrhea) when used as a free drug monotherapy or in combination with 5-FU (i.e., FOLFIRI regimen) in CRC (Cunningham et al. (1998) The Lancet, 352, 1413-1418; Rougier et al. (1998) The Lancet, 352: 1407-1412; Saltz et al. (2000) N. Engl. J Med. 343: 905-914). This constitutes one of the principal reasons for considering encapsulated irinotecan delivery. […] The possibility of acute myelosuppression effects was assessed by the collection of whole blood 24 h after the last IV injection, as well as looking at bone marrow cellularity (Id.). […] The visual appearance was confirmed by computer software that semi-quantitatively scored the total marrow cellularity and hematopoietic nuclei in the histology images (FIG. 13, panel A) (Travlos (2006) Toxicol. Pathol. 34: 548-565). […]
To compare the toxicity of different irinotecan formulations, a toxicity study was performed in healthy female C57BL/6 mice using a published protocol (Iusuf et al. (2014) Mol. Cancer Ther. 13: 492-503). […] H&E staining to assess bone marrow and hematopoietic cellularity in the sternum was analyzed by Aperio ImageScope software (Travlos (2006) Toxicol. Pathol. 34: 548-565).

MC38 cells = test: MTS cytotoxicity assay, MC38 cells; assay type: cell-based, murine; conditions: MC38 colon cancer cells
Protocol: as §1

non-metastatic PDAC = conditions: cited from earlier work

CCc1c2c(nc3ccc(OC(=O)N4CCC(N5CCCCC5)CC4)cc13)-c1cc3c(c(=O)n1C2)COC(=O)[C@]3(O)CC [free irinotecan, Irinotecan hydrochloride trihydrate]
primary tumor growth and metastasis (IVIS imaging) [1]: inefficient tumor inhibition
tumor growth by IVIS bioluminescence imaging (orthotopic MC38 tumor; 40 mg/kg irinotecan equivalent IV twice per week, up to day 21, n=6): no significant tumor growth inhibition
survival (Kaplan-Meier, Log-rank) (orthotopic MC38 tumor; 40 mg/kg irinotecan equivalent IV twice per week, up to six administrations, n=6): no significant survival benefit
rate of apoptosis (cleaved caspase-3 IHC) in orthotopic tumors (orthotopic MC38 tumor; 24 h after the 4th IV injection, 40 mg/kg, n=3): ~2.5%
in vitro killing effect (MTS) (KPC cells): most robust killing effect
bone marrow cellularity / myelosuppressive effects (sternum H&E) [2]: significant myelosuppressive effects
neutrophil count / neutropenia (differential WBC counts) [2]: significant degree of neutropenia
in vitro killing effect (MTS) (MC38 cells): most robust killing effect

Nc1ccn([C@@H]2O[C@H](CO)[C@@H](O)C2(F)F)c(=O)n1 [gemcitabine]
disease-free survival (non-metastatic PDAC): 12.8 months
